Experiment: LC50 of vanillin MEC formulation (pathogen not named)
Type: in vivo
Conditions: ppm of Vanillin, applied as 15% MEC formulation; organism not given
Excerpt: The unit commonly used in the art to determine the effectiveness of the antipathogenic formulation is LC50. This number represents the concentration of formulation at which 50% of pathogens die.

Compound: COc1cc(C=O)ccc1O [Vanillin, 4-Hydroxy-3-Methoxybenzaldehyde]
- LC50: 66 ppm

— patent publication US20100291247A1, “OIL FORMULATIONS AND METHODS OF USE” (priority 2007, published 2010)
